These results are taken from patent US6177469A, “Lipid alcohols as new immunosuppressive and antiviral drugs” (priority 1995, dated 2001).

As a reminder, the IC50 is the concentration needed to halve the response being measured.

Data set [1] in a line: cytotoxicity in CEM-SS cells by uptake of TdR-^3H into total DNA. In kind it is cell-based. The note with it: human, TdR-^3H uptake into total DNA, read-out: IC50 cytotoxicity. As to the method: (§1) The cell cytotoxicity and the anti-HIV-1-activity in CEM-SS cells of selected lipid alcohols are stated in table 1.
(§2) The cytotoxicity was determined by uptake of TdR-^3 H into the total DNA at various concentrations of the stated compounds. The anti-HIV 1 activity was determined using a standard plaque assay of a CEM-SS cell monolayer. The differential selectivity results from the quotient of the IC50 and anti-HIV 1 activity concentrations. ND means not determined.

For the next data set, the system named is HIV-1. In words: anti-HIV-1 activity, standard plaque assay of a CEM-SS cell monolayer. The data set is classed as cell-based. The note with it: for IC50: read-out: IC50 anti-HIV-1; for Diff. selectivity: quotient of cytotoxicity IC50 and anti-HIV 1 IC50. The method, then: as §1, §2
The mark [2] stands for this setting: Human immunodeficiency virus 1, CEM-SS cell monolayer, plaque assay.

Each structure is given as a SMILES string. Like-named read-outs stand apart in the source and are kept apart here.

In the case of `CCCCCCCCCCOC(CO)CSCC(C)CCCCCCCCC` (stereo not shown) [3-(2-methyl-undecyl)mercapto-2-decyloxy-1-propanol], the CC50 in data set [1] was over 100 µM. The IC50 with HIV-1 (Human immunodeficiency virus 1, CEM-SS) was 51.2 µM. This compound returned a Diff. selectivity in the data set on HIV-1 of over 1.95.
As for `CCCCCCCCCCCCOC(CO)CSCCCCCCCCCCCC` (stereo not shown) [3-dodecylmercapto-2-dodecyloxy-1-propanol], in data set [1], the CC50 is over 100 µM. Moreover, the IC50 in the data set on HIV-1 (setting [2]) is over 20 µM.
Turning to `CCCCCCCCCCCCSCC(CO)OCCCCCCCC` (stereo not shown) [3-dodecylmercapto-2-octyloxy-1-propanol], the CC50 in data set [1] was over 90.6 µM. Moreover, in the data set on HIV-1 (setting [2]), the IC50 is 7.01 µM. In the data set with HIV-1, the Diff. selectivity is given as over 12.92.
Turning to `CCCCCCCCCCCC[S+]([O-])CC(CO)OCCCCCCCCCC` (stereo not shown) [3-dodecylsulfinyl-2-decyloxy-1-propanol], in data set [1], the CC50 stood at 36.8 µM. For the same compound, the IC50 in the data set on HIV-1 (setting [2]) turned out to be 0.18 µM. Besides, the Diff. selectivity in the data set on HIV-1 amounted to 204.22.
For `CCCCCCCCCCCCS(=O)(=O)CC(CO)OCCCCCCCCCC` (stereo not shown) [3-dodecylsulfonyl-2-decyloxy-1-propanol] the same measures were 32.7 µM, 0.54 µM and 60.52.
On to `CCCCCCCCCCCCCCSCC(CO)OCCCCCCCCCC` (stereo not shown) [3-tetradecylmercapto-2-decyloxy-1-propanol], for which the CC50 in data set [1] was over 100 µM. Moreover, the IC50 in the data set on HIV-1 (setting [2]) was over 20 µM.
For `CCCCCCCCCCCOC(CO)CSCCCCCCCCCCC` (stereo not shown) [3-undecylmercapto-2-undecyloxy-1-propanol], the CC50 in data set [1] is over 100 µM. For the same compound, in the data set on HIV-1 (setting [2]), the IC50 came out at 2.95 µM. In addition, the Diff. selectivity with HIV-1 is recorded as over 33.90.
